According to patent publication US9365597B2, “Mitochondria-targeted inhibitors of cytochrome c peroxidase for protection from apoptosis” (Brock University, priority 2011, dated 2016):
Entries after “also recorded” stand apart in the source; their conditions may differ. Where two headings read alike, the source gives them in different places.

What was measured:
[1] = target: T1, cyt c/TOCL complexes (Equus caballus, UniProt P00004); assay: Peroxidase activity of cyt c/TOCL complexes, H2O2-induced oxidation of Amplex Red to resorufin; assay type: biochemical; conditions: for inhibition of cyt c peroxidase compared with TPP-ISA: ratio of compound to cyt c of 2.5:1, TOCL:cyt c 25:1; for inhibition of peroxidase activity of cyt c/TOCL complexes (Amplex Red oxidation): cyt c 1 μM, CL/cyt c 25:1, 50 μM Amplex Red, 50 μM H2O2, 20 min
T1 construct: purchased Sigma (St. Louis, Mo.)
T1 sequence (P00004 2-105 limits assumed, one chain of several): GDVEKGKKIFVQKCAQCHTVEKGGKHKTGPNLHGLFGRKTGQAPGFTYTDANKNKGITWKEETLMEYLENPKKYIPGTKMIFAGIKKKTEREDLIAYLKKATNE
Protocol: Conditions: cyt c (1 μM), H2O2 (50 μM), Amplex Red (50 μM). Experiments were performed in 20 mM HEPES buffer (pH 7.4) containing DTPA (100 μM), cyt c was incubated with DOPC/TOCL liposomes (1:1) at a ratio of TOCL:cyt c of 25:1.
(§1) Peroxidase activity of cyt c was assessed by oxidation of Amplex Red, etoposide or TLCL (tetra-linoleoyl-cardiolipin). Measurements of Amplex Red oxidation were performed using fluorescence of its oxidation product resorufin. Cyt c (1 μM) was incubated with tetra-oleoyl-cardiolipin (TOCL) containing liposomes (CL/cyt c ratio 25:1). Then 50 μM Amplex Red and 50 μM H2O2 were added, and the incubation proceeded for an additional 20 min. Fluorescence was detected by employing a “Fusion α” universal microplate analyzer and by using an excitation wavelength of 535 nm and an emission wavelength of 590 nm. EPR spectra of etoposide phenoxyl radicals were recorded at 25° C. in gas permeable Teflon tubings (inner diameter, 0.8 mm; thickness, 0.013; Alpha Wire Corp., Elizabeth, N.J.). Volume of samples was 60 μL. The spectra were recorded under the following conditions: 335.3 mT, center field; 2 mT, sweep width; 0.04 mT, field modulation; 10 mW, microwave power; 0.1 s, time constant; 2 min, time scan. The time course of the etoposide radical EPR signal was obtained by repeated scanning of the field (0.15 mT, sweep width; 335.3 mT, center field) corresponding to a part of the EPR signal. Peroxidase activity of mitochondria was determined by the formation of resorufin from Amplex Red. Isolated mouse liver mitochondria (0.6 mg/ml) were incubated in the presence of 100 μM Amplex Red and 2 mM tert-butyl hydroperoxide (tBOOH). After incubation at room temperature for 20 min, fluorescence of resurufin was measured.
Small unilamellar liposomes were prepared from dioleoylphosphatidylcholine (DOPC) and TOCL (1:1 ratio) or DOPC and TLCL (4:1 ratio) by sonication in HEPES buffer (20 mM with 100 μM diethylene triamine pentaacetic acid (DTPA) (pH 7.4) 3×60 sec, relaxation time 2 min, 4° C.).
(§2) Peroxidase activity of cyt c was assessed by oxidation of Amplex Red, etoposide or TLCL as described above.

[2] = target: T1, cyt c/TOCL complexes; assay: Peroxidase activity of cyt c/TOCL complexes, H2O2-induced oxidation of etoposide (EPR of phenoxyl radicals); assay type: biochemical; conditions: H2O2-driven oxidation of etoposide
Protocol: as §1, §2

[3] = target: T1, cyt c/TOCL complexes; assay: Low-temperature (77 K) EPR of protein-immobilized (tyrosyl) radicals of cyt c/TOCL with H2O2; assay type: biochemical; conditions: cyt c 100 μM, H2O2 500 μM, EPR at 77 K
Protocol: EPR spectra of protein-immobilized (tyrosyl) radicals were recorded after the addition of H2O2 (500 μM) to cyt c (100 μM) incubated with tetra-oleoyl-cardiolipin (TOOL) liposomes at room temperature. After incubation for 20 s, the reaction was stopped by freezing the samples in liquid nitrogen. EPR spectra were obtained on a JEOL-REIX spectrometer with 100 kHz modulation (JEOL, Kyoto, Japan). EPR spectra from frozen samples were recorded at 77 K under the following conditions: center field, 3230 G; sweep width, 100 G; field modulation, 5 G; microwave power, 1 mW; receiver gain, 10^3; time constant, 0.1 s; time scan, 4 min.

[4] = tested on: mouse liver mitochondria; assay: Peroxidase activity of isolated mouse liver mitochondria (Amplex Red, tBOOH); assay type: biochemical; conditions: 0.6 mg/ml mitochondria, 100 μM Amplex Red, 2 mM tBOOH, 20 min
Protocol: Peroxidase activity of cyt c was assessed by oxidation of Amplex Red, etoposide or TLCL (tetra-linoleoyl-cardiolipin). Measurements of Amplex Red oxidation were performed using fluorescence of its oxidation product resorufin. Cyt c (1 μM) was incubated with tetra-oleoyl-cardiolipin (TOCL) containing liposomes (CL/cyt c ratio 25:1). Then 50 μM Amplex Red and 50 μM H2O2 were added, and the incubation proceeded for an additional 20 min. Fluorescence was detected by employing a “Fusion α” universal microplate analyzer and by using an excitation wavelength of 535 nm and an emission wavelength of 590 nm. EPR spectra of etoposide phenoxyl radicals were recorded at 25° C. in gas permeable Teflon tubings (inner diameter, 0.8 mm; thickness, 0.013; Alpha Wire Corp., Elizabeth, N.J.). Volume of samples was 60 μL. The spectra were recorded under the following conditions: 335.3 mT, center field; 2 mT, sweep width; 0.04 mT, field modulation; 10 mW, microwave power; 0.1 s, time constant; 2 min, time scan. […] Peroxidase activity of mitochondria was determined by the formation of resorufin from Amplex Red. […] After incubation at room temperature for 20 min, fluorescence of resurufin was measured.
Finally, the ability of ISA and IEOA to inhibit peroxidase activity using isolated mouse liver mitochondria was assessed. […]

[5] = target: T1, cyt c/TOCL complexes; assay: Haem-nitrosylation of cyt c/TOCL by nitroxyl from Angeli's salt, EPR at 77 K; assay type: biochemical; conditions: Angeli's salt 500 μM, 30 min
Protocol: Heme nitrosylation: Cyt c (100 μM) was incubated with a nitroxyl donor, Angeli's salt (500 μM), for 30 min at room temperature. The reaction was stopped by freezing the samples in liquid nitrogen. The EPR spectra of heme-nitrosylated cyt c were measured at 77 K under the following instrumental settings: center field, 3200 G; scan range, 500 G; field modulation, 5 G; microwave power, 10 mW; time constant, 0.1 s; scan time, 4 min; receiver gain, 10^3.

[6] = tested on: mouse embryonic cells; assay: Actinomycin D-induced cell death in mouse embryonic cells (Annexin V/PI); assay type: cell-based; conditions: 1 to 100 μM (BSA complexes), 100 ng ml^−1 ActD, 18 h
Protocol: IEOA or ISA were incubated in the presence of fatty acid-free bovine serum albumin (BSA) (Sigma) at a molar ratio of 5:1 at 37° C. for 30 min. Mouse embryonic cells were incubated with IEOA/BSA or ISA/BSA (100 μM) complexes for 30 min before the addition of 100 ng ml^−1 actinomycin D (ActD). After 18-h incubation with ActD, cell viability was analysed by flow cytometry using an Annexin V/PI kit. ActD-induced cell death in ˜34.2% of cells. […] Representative data with 100 μM IEOA/BSA and ISA/BSA complexes are shown. Data are means±s.d., n=3.

[7] = target: T2, native ferri-cyt c (Equus caballus, UniProt P00004); assay: Liquid-He (20 K) X-band EPR of haem-iron ligation, native cyt c; assay type: binding; conditions: pH 7.4, 20 K, no TOCL
T2 construct: purchased Sigma (St. Louis, Mo.)
T2 sequence (P00004 2-105 limits assumed): as the sequence (P00004 2-105 limits assumed, one chain of several) above
Protocol: (§3) Conditions: native cyt c (300 μM), IEOA/cyt c (2:1), TOCL/IEOA/cyt c (20:2:1), 20 mM HEPES buffer, pH 7.4. Samples (200 μl) were placed in 3 mm o.d. suprasil quartz EPR tubes and frozen in liquid nitrogen for subsequent spectroscopic measurements. X-band (9 GHz) EPR spectra were recorded on a Bruker ESP 300 spectrometer equipped with an Oxford Instruments ESR 910 flow cryostat for ultra-low-temperature measurements. Spectra were recorded at 9.8 G modulation amplitude and 200 μW microwave power. The microwave frequency was calibrated by a frequency counter and the magnetic field was calibrated with a gaussmeter. The temperature was calibrated with carbon-glass resistors (CGR-1-1000) from LakeShore. This instrument and the software (SpinCount) to analyse the EPR spectra were provided by Professor Mike Hendrich, Carnegie Mellon University.

[8] = target: T3, cyt c/TOCL complex (Equus caballus, UniProt P00004); assay: Liquid-He (20 K) X-band EPR of haem-iron ligation, cyt c/TOCL complex; assay type: binding
T3 construct: purchased Sigma (St. Louis, Mo.)
T3 sequence (P00004 2-105 limits assumed, one chain of several): as above
Protocol: as §3

[9] = TPP-IOA levels in plasma, small intestine and bone marrow after i.p. injection (LC-MS/MS, SRM); assay type: in vivo; conditions: C57BL/6NTac, mouse, ip, 10 min after i.p. injection, 5 mg/kg body weight
Protocol: TPP-IOA and its hydrolysis products were extracted from plasma, small intestine and bone marrow tissue 10 min after TPP-IOA i.p. injection into animals (5 mg/kg body weight), using a standard Folch procedure for extraction of lipids^37. In one set of runs, intact TPP-IOA was assessed by SRM as described below. In an identical set of duplicate runs, hydrolyzed TPP-IOA (in the form of the TPP moiety, see below) was assessed by a different mass spectrometric method, MRM, as described below.
TPP-IOA (m/z 651) was assessed by SRM in a LCQ-Duo ion trap mass spectrometer (Thermo, Inc., Waltham, Mass.). Chromatography was performed on an Eclipse XDB reverse phase C18 column (4.6 mm×15 cm, Agilent Technologies, Santa Clara, Calif.) using an isocratic solvent system consisting of acetonitrile:water:triethylamine:acetic acid (450:50:2.5:2.5, v/v/v/v) and a flow rate of 0.4 ml/min. The transition measured was 651>303 (TPP-IOA to TPP-propyl moiety—water) within a 0.5 Da window. Instrument conditions were as follows: spray voltage, 4.5 kV, positive mode; sheath gas, 30; capillary temperature, 250° C.; tube lens, 20; capillary voltage, 26. The instrument was tuned for the appropriate parent ion and all parameters were optimized to maximize the transition during the SRM including tuning under appropriate flow conditions.

SMILES | inhibition of cyt c peroxidase compared with TPP-ISA [1] | inhibition of peroxidase activity of cyt c/TOCL complexes (Amplex Red oxidation) [1] | inhibition of peroxidase activity of cyt c/TOCL complexes (etoposide oxidation, EPR) [2] | H2O2-dependent generation of protein-immobilized (tyrosyl) radicals [3] | peroxidase activity of isolated mouse liver mitochondria [4] | EPR signal of haem-nitrosylated cyt c/TOCL [5] | protection against ActD-induced cell death [6] | other results
CCCCCCCCCCCCC(CCCCC(=O)OCCC[P+](c1ccccc1)(c1ccccc1)c1ccccc1)n1ccnc1.[Br-] (racemic) [TPP-6-imidazole-stearic acid, (3-((6-(1H-imidazol-1-yl)octadecanoyl)oxy)propyl)triphenylphosphonium bromide] | significantly better inhibitors of cyt c peroxidase than TPP-ISA | – | – | – | – | – | – | –
CCCCCCCCCCC(CCCCCCC(=O)OCCC[P+](c1ccccc1)(c1ccccc1)c1ccccc1)n1ccnc1.[Br-] (racemic) [TPP-8-imidazole-stearic acid, (3-((8-(1H-imidazol-1-yl)octadecanoyl)oxy)propyl)triphenylphosphonium bromide] | significantly better inhibitors of cyt c peroxidase than TPP-ISA | – | – | – | – | – | – | –
CCCCCCC(C/C=C/CCCCCCCC(=O)O)n1ccnc1 (stereo not drawn) [IEOA, (E)-12-(1H-imidazol-1-ium-1-yl)octadec-9-enoic acid] | – | potent inhibitors | potent inhibitors | effectively quenched generation of Tyr. radicals | suppressed peroxidase activity in a concentration-dependent manner | concentration-dependent decrease of the EPR signal | exerted no protection against apoptosis; also recorded: no detectable protection | –
CCCCCCC(C/C=C\CCCCCCCC(=O)O)n1ccnc1 (stereo not drawn) [IOA, 12-(Imidazol-1-yl)-(Z)-9-octadecaenoate] | – | potent inhibitors | potent inhibitors | effectively quenched generation of Tyr. radicals | – | – | – | EPR spectrum (axial haem coordination) of native ferri-cyt c on addition of compound [7]: no change in the EPR spectrum
CCCCCCC(CCCCCCCCCCC(=O)O)n1ccnc1 (stereo not drawn) [ISA, 12-(1H-imidazol-1-yl)octadecanoic acid] | – | potent inhibitors | potent inhibitors | – | suppressed peroxidase activity in a concentration-dependent manner | concentration-dependent decrease of the EPR signal | exerted no protection against apoptosis; also recorded: no detectable protection | change of haem-iron coordination in cyt c (Met80 substituted by imidazole moiety) [8]: able to change haem-iron coordination in cyt c
CCCCCCC(C/C=C\CCCCCCCC(=O)OCCC[P+](c1ccccc1)(c1ccccc1)c1ccccc1)n1ccnc1.[Br-] (stereo not drawn) [TPP-IOA, 9-(Z)-(3-(12-imidazol-1-yl)octadeca-9-enoyloxy)propyl)triphenylphosphonium bromide] | – | – | – | – | – | – | – | concentration at 10 min ([9]; bone marrow, read-out: TPP-IOA level in bone marrow): 0.2 ng/g; concentration at 10 min ([9]; plasma, read-out: TPP-IOA level in plasma): 54 ng/mL; concentration at 10 min ([9]; small intestine, read-out: TPP-IOA level in small intestine): 1.5 ng/g
